Measurements taken from PubChem BioAssay AID602206 (Sanford-Burnham Center for Chemical Genomics, 2012).
Active and inactive are the calls of the source. No rule for the calls is given here.

Biological target: Bcl-2-related protein A1 (Mus musculus) (UniProt Q07440)
Experiment: Bfl-1 binding inhibition by analogs, SAR follow-up, counter-screen for UBC13 polyubiquitination inhibitor project, biochemical, mouse Bfl-1, set 3 (AID 602206)
Details: Bfl-1 / peptide binding counterscreen, TR-FRET

Chain of Bcl-2-related protein A1 (Mus musculus) (Q07440 whole entry, looked up): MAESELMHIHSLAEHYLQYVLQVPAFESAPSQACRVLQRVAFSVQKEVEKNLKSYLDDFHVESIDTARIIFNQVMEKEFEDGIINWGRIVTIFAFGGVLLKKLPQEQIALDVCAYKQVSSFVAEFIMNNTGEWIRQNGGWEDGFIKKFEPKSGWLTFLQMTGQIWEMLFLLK

Structure (SMILES) | IC50
O=C(Nc1ccc(CN2CCCCC2)cc1)C1CCN(c2ncnc3c2nc2n3CCCCC2)CC1 | > 100 µM (inactive)
c1nc(N2CCC(N3CCCCC3)CC2)c2nc3n(c2n1)CCCC3 | > 100 µM (inactive)
CC1CN(S(=O)(=O)c2ccc(NC(=O)CCCCCN3C(=O)c4ccccc4C3=O)cc2)CC(C)O1 (centres undefined) | > 100 µM (inactive)
Fc1ccccc1N1CCN(c2ncnc3c2nc2n3CCCC2)CC1 | > 100 µM (inactive)
O=C(CCCCCN1C(=O)c2ccccc2C1=O)NCCc1ccccc1 | > 100 µM (inactive)
CCOc1ccc(CCNC(=O)CCCCCN2C(=O)c3ccccc3C2=O)cc1OCC | > 100 µM (inactive)
Cc1ccc(Cl)cc1N1CCN(c2ncnc3c2nc2n3CCCC2)CC1 | > 100 µM (inactive)
c1ccc(CN2CCN(c3ncnc4c3nc3n4CCCC3)CC2)cc1 | > 100 µM (inactive)

Other lines, results leading:

IC50 | Structure (SMILES)
> 100 µM (inactive) | COc1ccc(NC(=O)C2CCN(c3ncnc4c3nc3n4CCCCC3)CC2)cc1Cl
> 100 µM (inactive) | COc1ccc(Cl)cc1NC(=O)C1CCN(c2ncnc3c2nc2n3CCCCC2)CC1
> 100 µM (inactive) | Cc1ccc(NC(=O)C2CCN(c3ncnc4c3nc3n4CCCCC3)CC2)cc1F
> 100 µM (inactive) | COc1cc(Cl)c(C)cc1NC(=O)C1CCN(c2ncnc3c2nc2n3CCCCC2)CC1
> 100 µM (inactive) | Cc1c(Cl)cccc1NC(=O)C1CCN(c2ncnc3c2nc2n3CCCCC2)CC1
> 100 µM (inactive) | Cc1ccc(NC(=O)C2CCN(c3ncnc4c3nc3n4CCCCC3)CC2)cc1C
> 100 µM (inactive) | O=C(Nc1cccc(Cl)c1)C1CCN(c2ncnc3c2nc2n3CCCCC2)CC1
> 100 µM (inactive) | O=C(Nc1cc(F)ccc1F)C1CCN(c2ncnc3c2nc2n3CCCCC2)CC1
> 100 µM (inactive) | Cc1ccc(NC(=O)C2CCN(c3ncnc4c3nc3n4CCCCC3)CC2)c(Cl)c1
> 100 µM (inactive) | Cc1cc(Cl)ccc1NC(=O)C1CCN(c2ncnc3c2nc2n3CCCCC2)CC1
> 100 µM (inactive) | COc1cc(OC)c(NC(=O)C2CCN(c3ncnc4c3nc3n4CCCCC3)CC2)cc1Cl
